Measured values reported in ChEMBL document CHEMBL3774307, “Synthesis, Characterization, and DNA Binding Profile of a Macrocyclic β-Sheet Analogue of ARC Protein” (ACS Med Chem Lett, 2015).
Active and inactive are the calls of the source. The rule behind the calls is not given here. Positions of bridges follow the written chain, without caps; N, C: chain ends. Non-standard residues stand in square brackets, D forms with d. Residues, ends and D or L forms follow the SMILES beside them. Chains are numbered I, II in the order given. Orn = NCCC[C@H](N)C(=O)O

How the values were obtained:
[1] = Binding affinity to 5'-GCGAGCACAGCTTTTTGCTGTGCTCGC-3' dsDNA (unknown origin) by ethidium bromide displacement assay
[2] = Binding affinity to 5'-GCGAGTAGAGCTTTTTGCTCTACTCGC-3' dsDNA (unknown origin) by ethidium bromide displacement assay
[3] = Binding affinity to 5'-GCGAGTAGAGCTTTTTGCTCTACTCGC-3' dsDNA (unknown origin) by tryptophan fluorescence spectroscopic analysis
[4] = Binding affinity to 5'-GCGAGCACAGCTTTTTGCTGTGCTCGC-3' dsDNA (unknown origin) by tryptophan fluorescence spectroscopic analysis
[5] = Binding affinity to 5'-ATGACTCAT-3' AP-1 dsDNA (unknown origin) by isothermal titration calorimetry
[6] = Binding affinity to 5'-ATGACGTCAT-3' ATF/CREB dsDNA (unknown origin) by isothermal titration calorimetry

Activity [1] | Kd [2] | Activity [3] | Activity [4] | Kd [5] | Kd [6] | SMILES
Active | 2.1 µM | Active | Active | – | – | CC(C)C[C@@H]1NC(=O)[C@H](CC(N)=O)NC(=O)[C@H](Cc2ccccc2)NC(=O)[C@H](CCC(N)=O)NC(=O)[C@H](CCCCN)NC(=O)[C@@H](N)CCCNC(=O)[C@H](Cc2c[nH]c3ccccc23)NC(=O)[C@H](CCCNC(=N)N)NC(=O)[C@H](CC(C)C)NC(=O)[C@H](CC(N)=O)NC(=O)[C@H](Cc2ccccc2)NC(=O)[C@H](CCC(N)=O)NC(=O)[C@H](CCCCN)NC(=O)[C@@H](N)CCCNC(=O)[C@H](Cc2c[nH]c3ccccc23)NC(=O)[C@H](CCCNC(=N)N)NC1=O (I: H-[Orn]KQFNLRW / II: H-[Orn]KQFNLRW; amide I:1-II:C, I:C-II:1)
– | – | – | – | 20 µM | 20 µM | CC(=O)N[C@@H](CC(=O)O)C(=O)N1CCC[C@H]1C(=O)N[C@@H](C)C(=O)N[C@@H](C)C(=O)N[C@@H](CC(C)C)C(=O)N[C@@H](CCCCN)C(=O)N[C@@H](CCCNC(=N)N)C(=O)N[C@@H](C)C(=O)N[C@@H](CCCNC(=N)N)C(=O)N[C@@H](CC(N)=O)C(=O)N[C@H](C(=O)N[C@@H](CCC(=O)O)C(=O)N[C@@H](C)C(=O)N[C@@H](C)C(=O)N[C@@H](CCCNC(=N)N)C(=O)N[C@@H](CCCNC(=N)N)C(=O)N[C@@H](CO)C(=O)N[C@@H](CCCNC(=N)N)C(=O)N[C@@H](C)C(=O)N[C@@H](CCCNC(=N)N)C(=O)N[C@@H](CCCCN)C(=O)N[C@@H](CC(C)C)C(=O)N[C@@H](CCC(N)=O)C(=O)N[C@@H](CCCNC(=N)N)C(=O)N[C@@H](CC(C)C)C(=O)N[C@@H](CCCCN)C(=O)N[C@@H](CCC(N)=O)C(N)=O)[C@@H](C)O (Ac-DPAALKRARNTEAARRSRARKLQRLKQ-NH2)
